Assay [1] addresses Sigma non-opioid intracellular receptor 1 (Homo sapiens, UniProt Q99720). Put plainly: GPCRScan assay: inhibition of Sigma 1. On the set-up: radioligand conc. used [nm] 4.0 – 5.0, parental cells HEKT.
In assay [2] the target is D(3) dopamine receptor (Homo sapiens, UniProt P35462). Put plainly: GPCRScan assay: inhibition of D3. Also noted: radioligand conc. used [nm] 0.5 – 1.8, parental cells HEKT.
In assay [3] the target is GABA-A receptor; anion channel (Rattus norvegicus) (UniProt O09028+P15431+P18506+P18508+P19969+P20236+P23574+P23576+P28471+P28473+P30191+P62813+P63079+P63138+Q91ZM7+Q9ES14). The note with it: Compound concentration 10.0 uM.
The target in assay [4] is cGMP-dependent protein kinase 2 (Homo sapiens) (UniProt Q13237). To be noted: Compound concentration 1000.0 nM.
Assay [5] deals with Transient receptor potential cation channel subfamily M member 6 (Homo sapiens) (UniProt Q9BX84). To be noted: Compound concentration 1000.0 nM.
The target in assay [6] is Tyrosine-protein kinase Fer (Homo sapiens) (UniProt P16591). To be noted: Compound concentration 1000.0 nM.
Assay [7] has as its target Phosphatidylinositol 4,5-bisphosphate 3-kinase catalytic subunit alpha isoform (Homo sapiens) (UniProt P42336). The note with it: Compound concentration 1000.0 nM.
The target in assay [8] is Serine/threonine-protein kinase 25 (Homo sapiens) (UniProt O00506). The note with it: Compound concentration 1000.0 nM.
The target in assay [9] is Interleukin-1 receptor-associated kinase 3 (Homo sapiens) (UniProt Q9Y616). The note with it: Compound concentration 1000.0 nM.
Assay [10] addresses Mitogen-activated protein kinase kinase kinase kinase 3 (Homo sapiens) (UniProt Q8IVH8). To be noted: Compound concentration 1000.0 nM.
For assay [11], the target named is Mitogen-activated protein kinase kinase kinase 11 (Homo sapiens) (UniProt Q16584). To be noted: Compound concentration 1000.0 nM.
Assay [12] deals with MAP kinase-interacting serine/threonine-protein kinase 1 (Homo sapiens) (UniProt Q9BUB5). The note with it: Compound concentration 1000.0 nM.
The target in assay [13] is Mitogen-activated protein kinase kinase kinase 15 (Homo sapiens) (UniProt Q6ZN16). To be noted: Compound concentration 1000.0 nM.
Assay [14] concerns the target Ephrin type-A receptor 7 (Homo sapiens) (UniProt Q15375). To be noted: Compound concentration 1000.0 nM.
Assay [15] has as its target Tyrosine-protein kinase JAK2 (Homo sapiens) (UniProt O60674). To be noted: Compound concentration 1000.0 nM.
The target in assay [16] is Casein kinase I isoform gamma-1 (Homo sapiens) (UniProt Q9HCP0). The note with it: Compound concentration 1000.0 nM.
The target in assay [17] is Receptor tyrosine-protein kinase erbB-4 (Homo sapiens) (UniProt Q15303). To be noted: Compound concentration 1000.0 nM.
Assay [18] has as its system Mast/stem cell growth factor receptor Kit (Homo sapiens), P10721 [V559D]. To be noted: Compound concentration 1000.0 nM.
The target in assay [19] is Mitogen-activated protein kinase 4 (Homo sapiens) (UniProt P31152). The note with it: Compound concentration 1000.0 nM.
For assay [20], the target named is Death-associated protein kinase 2 (Homo sapiens) (UniProt Q9UIK4). The note with it: Compound concentration 1000.0 nM.
The target of assay [21] is Mitogen-activated protein kinase 14 (Homo sapiens) (UniProt Q16539). To be noted: Compound concentration 1000.0 nM.
Assay [22] addresses Mitogen-activated protein kinase kinase kinase 13 (Homo sapiens) (UniProt O43283). The note with it: Compound concentration 1000.0 nM.
The target of assay [23] is Serine/threonine-protein kinase SIK1 (Homo sapiens) (UniProt P57059). The note with it: Compound concentration 1000.0 nM.
Chain of Serine/threonine-protein kinase SIK1 (Homo sapiens) (P57059 whole entry): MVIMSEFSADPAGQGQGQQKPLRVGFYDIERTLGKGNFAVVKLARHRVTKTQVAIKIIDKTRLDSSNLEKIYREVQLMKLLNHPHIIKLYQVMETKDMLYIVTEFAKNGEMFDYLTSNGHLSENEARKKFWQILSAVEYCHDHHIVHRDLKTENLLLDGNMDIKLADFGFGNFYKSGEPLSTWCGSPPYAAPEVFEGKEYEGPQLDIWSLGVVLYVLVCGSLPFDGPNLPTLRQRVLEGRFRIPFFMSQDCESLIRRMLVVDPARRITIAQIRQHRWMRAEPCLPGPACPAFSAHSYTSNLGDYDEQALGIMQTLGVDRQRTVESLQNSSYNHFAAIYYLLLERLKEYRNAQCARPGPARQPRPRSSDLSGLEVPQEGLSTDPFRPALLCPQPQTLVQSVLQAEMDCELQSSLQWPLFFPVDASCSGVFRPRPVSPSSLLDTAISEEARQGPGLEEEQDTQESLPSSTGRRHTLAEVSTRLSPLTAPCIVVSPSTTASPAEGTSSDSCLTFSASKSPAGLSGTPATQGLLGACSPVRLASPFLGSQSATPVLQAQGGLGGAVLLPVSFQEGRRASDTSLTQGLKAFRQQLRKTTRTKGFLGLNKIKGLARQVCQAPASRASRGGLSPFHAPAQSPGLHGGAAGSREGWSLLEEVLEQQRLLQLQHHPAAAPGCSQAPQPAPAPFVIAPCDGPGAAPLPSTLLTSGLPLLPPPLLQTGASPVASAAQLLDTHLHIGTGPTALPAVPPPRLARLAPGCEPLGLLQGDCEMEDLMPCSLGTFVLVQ
The target in assay [24] is Protein kinase C eta type (Homo sapiens) (UniProt P24723). To be noted: Compound concentration 1000.0 nM.
The target in assay [25] is Activin receptor type-1B (Homo sapiens) (UniProt P36896). To be noted: Compound concentration 1000.0 nM.
Assay [26] addresses Mitotic checkpoint serine/threonine-protein kinase BUB1 (Homo sapiens) (UniProt O43683). The note with it: Compound concentration 1000.0 nM.
For assay [27], the system named is Serine/threonine-protein kinase B-raf (Homo sapiens), P15056 [V600E]. The note with it: Compound concentration 1000.0 nM.
The subject of assay [28] is eIF-2-alpha kinase GCN2 (Homo sapiens), Q9P2K8 [S808G]. The note with it: Compound concentration 1000.0 nM.
In assay [29] the target is Mitogen-activated protein kinase 7 (Homo sapiens) (UniProt Q13164). To be noted: Compound concentration 1000.0 nM.
For assay [30], the target named is Serine/threonine-protein kinase 26 (Homo sapiens) (UniProt Q9P289). To be noted: Compound concentration 1000.0 nM.
Chain of Serine/threonine-protein kinase 26 (Homo sapiens) (Q9P289 2-416 limits assumed): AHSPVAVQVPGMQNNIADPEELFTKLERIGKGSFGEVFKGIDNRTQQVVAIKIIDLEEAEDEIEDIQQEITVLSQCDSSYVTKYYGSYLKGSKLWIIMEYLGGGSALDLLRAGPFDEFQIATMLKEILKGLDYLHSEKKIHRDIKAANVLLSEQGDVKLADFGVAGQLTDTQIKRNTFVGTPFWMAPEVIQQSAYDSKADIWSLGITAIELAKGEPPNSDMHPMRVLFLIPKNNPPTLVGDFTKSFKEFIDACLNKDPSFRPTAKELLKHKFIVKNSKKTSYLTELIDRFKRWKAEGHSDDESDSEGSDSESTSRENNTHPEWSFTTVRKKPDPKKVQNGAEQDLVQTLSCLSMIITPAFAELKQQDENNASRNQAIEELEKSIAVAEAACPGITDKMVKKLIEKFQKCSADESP
Assay [31] has as its system Phosphatidylinositol 4,5-bisphosphate 3-kinase catalytic subunit alpha isoform (Homo sapiens), P42336 [H1047L]. The note with it: Compound concentration 1000.0 nM.
Assay [32] has as its target Ribosomal protein S6 kinase alpha-5 (Homo sapiens) (UniProt O75582). To be noted: Compound concentration 1000.0 nM.
The target in assay [33] is Protein kinase C epsilon type (Homo sapiens) (UniProt Q02156). To be noted: Compound concentration 1000.0 nM.
The target in assay [34] is Serine/threonine-protein kinase BRSK2 (Homo sapiens) (UniProt Q8IWQ3). To be noted: Compound concentration 1000.0 nM.
For assay [35], the target named is Protein-tyrosine kinase 2-beta (Homo sapiens) (UniProt Q14289). The note with it: Compound concentration 1000.0 nM.
For assay [36], the target named is Serine/threonine-protein kinase D2 (Homo sapiens) (UniProt Q9BZL6). The note with it: Compound concentration 1000.0 nM.
The subject of assay [37] is Leucine-rich repeat serine/threonine-protein kinase 2 (Homo sapiens), Q5S007 [G2019S]. The note with it: Compound concentration 1000.0 nM.
For assay [38], the target named is Megakaryocyte-associated tyrosine-protein kinase (Homo sapiens) (UniProt P42679). The note with it: Compound concentration 1000.0 nM.
For assay [39], the target named is Serine/threonine-protein kinase NLK (Homo sapiens) (UniProt Q9UBE8). The note with it: Compound concentration 1000.0 nM.
In assay [40] the target is Cyclin-dependent kinase 19 (Homo sapiens) (UniProt Q9BWU1). To be noted: Compound concentration 1000.0 nM.
For assay [41], the target named is Myosin light chain kinase family member 4 (Homo sapiens) (UniProt Q86YV6). The note with it: Compound concentration 1000.0 nM.
Assay [42] has as its target Myotonin-protein kinase (Homo sapiens) (UniProt Q09013). To be noted: Compound concentration 1000.0 nM.
Assay [43] concerns the target Non-receptor tyrosine-protein kinase TYK2 (Homo sapiens) (UniProt P29597). To be noted: Compound concentration 1000.0 nM.
For assay [44], the target named is Protein-tyrosine kinase 6 (Homo sapiens) (UniProt Q13882). The note with it: Compound concentration 1000.0 nM.

Chain of Leucine-rich repeat serine/threonine-protein kinase 2 (Homo sapiens), Q5S007 [G2019S] (Q5S007 whole entry G2019S): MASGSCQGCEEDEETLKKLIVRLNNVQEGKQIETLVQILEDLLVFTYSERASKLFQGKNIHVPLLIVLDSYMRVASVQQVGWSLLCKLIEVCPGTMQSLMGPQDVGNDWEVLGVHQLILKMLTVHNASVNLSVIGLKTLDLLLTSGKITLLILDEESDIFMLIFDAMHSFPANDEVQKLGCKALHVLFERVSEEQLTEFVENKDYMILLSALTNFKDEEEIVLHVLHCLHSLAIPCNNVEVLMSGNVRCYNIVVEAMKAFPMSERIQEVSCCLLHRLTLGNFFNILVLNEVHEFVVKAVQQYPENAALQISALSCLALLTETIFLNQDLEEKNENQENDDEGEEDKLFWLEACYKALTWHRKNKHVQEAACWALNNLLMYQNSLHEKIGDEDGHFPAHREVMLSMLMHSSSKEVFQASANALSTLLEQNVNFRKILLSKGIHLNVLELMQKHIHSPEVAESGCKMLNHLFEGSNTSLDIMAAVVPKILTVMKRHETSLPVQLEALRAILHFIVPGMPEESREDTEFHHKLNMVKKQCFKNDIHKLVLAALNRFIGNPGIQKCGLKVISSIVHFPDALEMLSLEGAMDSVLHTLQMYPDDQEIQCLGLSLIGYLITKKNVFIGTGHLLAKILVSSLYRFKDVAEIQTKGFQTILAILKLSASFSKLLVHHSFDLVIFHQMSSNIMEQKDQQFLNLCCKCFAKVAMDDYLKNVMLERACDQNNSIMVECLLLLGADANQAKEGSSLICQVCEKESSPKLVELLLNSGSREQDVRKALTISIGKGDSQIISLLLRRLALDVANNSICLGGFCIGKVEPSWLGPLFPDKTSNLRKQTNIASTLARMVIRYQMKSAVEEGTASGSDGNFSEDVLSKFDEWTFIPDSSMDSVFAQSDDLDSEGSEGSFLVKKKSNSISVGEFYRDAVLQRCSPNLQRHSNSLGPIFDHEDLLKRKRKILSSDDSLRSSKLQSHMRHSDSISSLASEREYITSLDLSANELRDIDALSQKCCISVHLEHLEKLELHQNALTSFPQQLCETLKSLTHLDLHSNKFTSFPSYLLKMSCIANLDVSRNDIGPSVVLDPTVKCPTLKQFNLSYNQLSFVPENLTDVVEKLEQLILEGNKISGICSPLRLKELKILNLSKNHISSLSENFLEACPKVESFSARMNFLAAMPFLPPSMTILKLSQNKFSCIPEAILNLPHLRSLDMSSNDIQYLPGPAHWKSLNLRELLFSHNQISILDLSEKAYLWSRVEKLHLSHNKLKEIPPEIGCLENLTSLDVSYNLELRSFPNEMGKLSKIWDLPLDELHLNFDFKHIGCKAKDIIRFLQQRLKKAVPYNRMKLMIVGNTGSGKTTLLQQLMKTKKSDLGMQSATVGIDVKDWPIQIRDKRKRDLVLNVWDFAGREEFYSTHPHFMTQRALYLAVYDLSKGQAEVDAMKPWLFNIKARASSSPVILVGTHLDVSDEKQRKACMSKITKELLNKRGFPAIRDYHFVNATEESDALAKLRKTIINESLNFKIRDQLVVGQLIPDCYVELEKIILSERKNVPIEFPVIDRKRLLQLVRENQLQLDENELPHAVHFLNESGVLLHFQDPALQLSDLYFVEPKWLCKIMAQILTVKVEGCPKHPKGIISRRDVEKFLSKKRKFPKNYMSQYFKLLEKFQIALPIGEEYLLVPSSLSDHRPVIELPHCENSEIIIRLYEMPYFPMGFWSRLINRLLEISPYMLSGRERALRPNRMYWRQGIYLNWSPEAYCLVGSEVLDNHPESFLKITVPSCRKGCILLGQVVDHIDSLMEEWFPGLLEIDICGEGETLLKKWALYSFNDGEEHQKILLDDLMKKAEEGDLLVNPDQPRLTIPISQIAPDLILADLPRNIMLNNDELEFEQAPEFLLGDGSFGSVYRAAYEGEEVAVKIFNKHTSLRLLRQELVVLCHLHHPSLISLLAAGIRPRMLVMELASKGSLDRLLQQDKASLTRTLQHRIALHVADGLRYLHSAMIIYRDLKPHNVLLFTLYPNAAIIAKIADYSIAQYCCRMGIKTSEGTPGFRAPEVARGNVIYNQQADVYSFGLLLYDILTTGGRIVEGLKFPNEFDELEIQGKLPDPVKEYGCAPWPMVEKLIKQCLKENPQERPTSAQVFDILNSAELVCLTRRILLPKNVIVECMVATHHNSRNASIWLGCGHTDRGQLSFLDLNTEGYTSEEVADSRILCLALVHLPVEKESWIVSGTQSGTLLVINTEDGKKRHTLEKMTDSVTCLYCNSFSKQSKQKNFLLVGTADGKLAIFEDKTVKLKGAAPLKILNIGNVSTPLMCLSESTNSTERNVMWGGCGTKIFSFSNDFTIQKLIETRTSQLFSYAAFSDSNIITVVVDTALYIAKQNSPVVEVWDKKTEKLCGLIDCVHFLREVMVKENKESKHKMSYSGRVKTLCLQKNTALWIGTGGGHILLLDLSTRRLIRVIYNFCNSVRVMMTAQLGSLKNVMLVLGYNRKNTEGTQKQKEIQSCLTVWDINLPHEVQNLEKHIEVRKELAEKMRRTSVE
Chain of Tyrosine-protein kinase JAK2 (Homo sapiens) (O60674 whole entry, canonical isoform): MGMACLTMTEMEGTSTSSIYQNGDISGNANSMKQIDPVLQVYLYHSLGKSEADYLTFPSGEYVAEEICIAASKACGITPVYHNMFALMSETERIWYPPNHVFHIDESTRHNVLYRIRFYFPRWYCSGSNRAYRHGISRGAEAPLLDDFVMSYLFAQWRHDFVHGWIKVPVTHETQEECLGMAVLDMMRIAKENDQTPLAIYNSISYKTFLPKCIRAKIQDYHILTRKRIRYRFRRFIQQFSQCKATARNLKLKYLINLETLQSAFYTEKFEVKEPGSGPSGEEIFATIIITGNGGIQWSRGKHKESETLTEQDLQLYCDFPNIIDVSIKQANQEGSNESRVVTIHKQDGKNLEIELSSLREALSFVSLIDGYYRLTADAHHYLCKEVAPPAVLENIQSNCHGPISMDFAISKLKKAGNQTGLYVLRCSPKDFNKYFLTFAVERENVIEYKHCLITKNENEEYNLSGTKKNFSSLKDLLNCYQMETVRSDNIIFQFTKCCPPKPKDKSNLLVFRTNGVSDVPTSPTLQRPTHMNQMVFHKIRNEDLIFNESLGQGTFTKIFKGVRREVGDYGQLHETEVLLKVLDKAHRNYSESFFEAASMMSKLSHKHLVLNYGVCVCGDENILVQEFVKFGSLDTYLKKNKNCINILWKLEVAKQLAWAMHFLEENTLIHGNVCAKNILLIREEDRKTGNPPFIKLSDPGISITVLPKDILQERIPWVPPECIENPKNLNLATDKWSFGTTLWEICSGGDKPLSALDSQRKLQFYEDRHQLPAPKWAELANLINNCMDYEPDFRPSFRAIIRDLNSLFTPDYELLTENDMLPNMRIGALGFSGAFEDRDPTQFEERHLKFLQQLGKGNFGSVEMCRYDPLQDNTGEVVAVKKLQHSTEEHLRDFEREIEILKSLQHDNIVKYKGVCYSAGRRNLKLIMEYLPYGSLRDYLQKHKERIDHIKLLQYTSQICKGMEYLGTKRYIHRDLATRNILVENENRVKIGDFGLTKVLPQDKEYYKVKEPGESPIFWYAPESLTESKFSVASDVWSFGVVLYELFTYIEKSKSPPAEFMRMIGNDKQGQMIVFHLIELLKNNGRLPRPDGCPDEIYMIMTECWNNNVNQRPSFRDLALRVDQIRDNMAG
Chain of Sigma non-opioid intracellular receptor 1 (Q99720 whole entry): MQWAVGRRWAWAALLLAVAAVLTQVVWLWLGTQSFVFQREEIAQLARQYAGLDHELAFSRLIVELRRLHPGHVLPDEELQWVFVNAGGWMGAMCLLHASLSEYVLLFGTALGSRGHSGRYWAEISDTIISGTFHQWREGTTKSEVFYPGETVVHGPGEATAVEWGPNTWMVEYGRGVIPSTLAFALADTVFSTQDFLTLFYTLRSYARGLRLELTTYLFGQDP

Broadly, the Ki is a dissociation constant, usually derived from enzyme kinetics or from competition with a known ligand. Usually inhibition stands for the share of the control response that was lost under treatment. In the case of `CC(C)(C)OC(=O)N1CCCC1CNC1CCC(c2cc(F)ccc2F)(S(=O)(=O)c2ccc(Cl)cc2)CC1` (centres undefined) [GSI-NC], the inhibition constant (Ki) in assay [1] was determined as 223 nM; in assay [2], 710 nM. In [3], the inhibition was 11%.
As to `O=S(=O)(NC1CCC(c2cc(F)ccc2F)(S(=O)(=O)c2ccc(Cl)cc2)CC1)C(F)(F)F` (centres undefined) [MRK-560], the residual activity was 100% in assay [4]; 95% in assay [5]; 100% in assay [6]; 100% in assay [7]; 100% in assay [8]; 98% in [9]. The residual activity in assay [10] is 100%; in assay [11], 100%; in [12], 93%; in [13], 78%; in assay [14], 100%; in assay [15], 83%. For the same compound, the residual activity in assay [16] was 86%; in [17] it was 94%; in [18], 95%; in assay [19], 95%; in assay [20], 96%; in assay [21], 100%. For the same compound, the residual activity in [22] was 91%; in assay [23], 100%; in assay [24] it was 99%; in [25] it was 87%; in [26], 100%; in [27], 86%. In addition, the residual activity was 100% in assay [28]; 92% in assay [29]; 85% in [30]; 41% in assay [31]; 94% in assay [32]; 52% in assay [33]. Also, the residual activity in assay [34] was 100%; in assay [35] it was 100%; in assay [36], 79%; in [37], 100%; in assay [38] it was 100%; in assay [39], 100%. The residual activity in assay [40] was 100%; in [41], 100%; in assay [42], 100%; in [43] it was 100%; in assay [44] it was 95%.
